Experimental data reported in patent publication US9801885B2, “Transvaginal phosphodiesterase inhibitors for infertility treatment” (PROKREA BCN, S.L., priority 2011, dated 2017).
Entries after “also recorded” stand apart in the source; their conditions may differ.

How the values were obtained:
[1] = system: sperm of a semen sample from a patient with asthenozoospermia; test: In vitro assay of the effect of phosphodiesterase inhibitors on sperm motility; assay type: cell-based, human; set-up: key to Increase in sperm speed: the symbol ++ denotes a very significant increase in sperm motility; details: vs untreated sample; for Increase in sperm type A + B: mixed 1:1 with semen; for Increase in sperm speed: subjective rating, all sperm types
Protocol: In each case the corresponding phosphodiesterase inhibitor (rolipram, milrinone, ibudilast and pentoxifylline) was dissolved in a commercial medium suitable for performing sperm preparations (SpermRinse®) to the desired concentration. […] A semen sample was taken from a patient with asthenozoospermia and it was kept at room temperature for 5 minutes after liquefaction, it was mixed with SpermRinse® solution without phosphodiesterase inhibitor in a volumetric ratio of 1:1. Another part of the semen was mixed also after liquefaction with the SpermRinse® solution containing the phosphodiesterase inhibitor also in a proportion of 1:1 by volume. For each observation, 3 microdrops of the preparation were used, they were placed under an optical microscope with 20× objective and Makler camera. A sperm count was performed, the number of type A sperm (advancing rapidly, with rectilinear trajectory) and type B sperm (advancing rapidly, with curvilinear trajectory) of each sample being counted. This was performed for the untreated sample and for the samples treated with the phosphodiesterase inhibitor. Three readings were made for each sample and the mean value was calculated. Likewise, a subjective observation of the increase of sperm speed of all the sperm types was also performed for the samples treated with the phosphodiesterase inhibitor, with respect to the untreated samples.

couples with infertility = test: Assay of the effectiveness of intravaginal pentoxifylline in the treatment of couples with infertility; assay type: in vivo, human
Protocol: The most fertile days were determined by cervical mucus test, vaginal ultrasound, or ovulation test. An ovulation inducer, clomiphene or purified human gonadotrofin, irrespectively, was simultaneously administered to 6 of the couples. The gel was administered in 3 different cycles or in several days of the same cycle. A meeting was conducted with the patients between 15 and 20 hours after each administration and a microscopic examination of the endocervical exudate was performed.

[2] = system: infertile men with asthenozoospermia; details: 1200 mg daily for four months, cited from earlier work
[3] = microscopic examination 15 to 20 hours after transvaginal administration

Row | SMILES | Increase in sperm type A + B ([1]; 100 μM in SpermRinse) | Increase in sperm speed ([1]; 100 μM) | Increase in sperm type A + B ([1]; 1 μM in SpermRinse) | Increase in sperm speed ([1]; 1 μM) | pregnancies achieved (couples with infertility; among 20 couples, transvaginal gel of Example 2) | cervical mucus characteristics (filancia, transparency, leukocytic diathesis) (couples with infertility; [3]) | type A sperm (WHO classification) counted in cervical exudate (couples with infertility; [3]) | sperm quality in terms of motility in cervical exudate (couples with infertility; microscopic examination 15 to 20 hours after transvaginal administration, asthenozoospermia and normospermia) | side effects due to the treatment (couples with infertility; transvaginal administration in women) | pregnancy percentage (effectiveness) (couples with infertility; transvaginal, three single-doses of 10 g gel of Example 2 (4% pentoxifylline), after coitus, 20 couples) [%] | pregnancies counted after oral treatment ([2]; 15 infertile men) | pregnancy percentage after oral treatment ([2]; 15 infertile men) [%] | sperm motility of the subjects treated ([2]; oral)
1 | CC(C)C(=O)c1c(C(C)C)nn2ccccc12 [Ibudilast, 2-methyl-1-(2-(1-methyethyl)pyrazolo(1,5-a)pyridin-3-yl)-1-propanone] | ++ (the symbol ++ indicates an increase greater than 40% in the A+B sperm type count) | ++ | – | – | – | – | – | – | – | – | – | – | –
2 | CC(=O)CCCCn1c(=O)c2c(ncn2C)n(C)c1=O [Pentoxifylline, 3,7-dihydro-3,7-dimethyl-1-(5-oxohexyl)-1H-purine-2,6-dione] | – | – | ++ (the symbol ++ indicates an increase greater than 40% in the A+B sperm type count) | ++ | 4 | maintains and even improves the characteristics of cervical mucus; also recorded: improvement in the characteristics of cervical mucus | significant number of type A sperm | improvement in sperm quality in terms of motility | not observed in any case; also recorded: does not cause any type of allergy or side effect | 20 | 2 | 13.3 | substantial improvement in sperm motility
3 | Cc1[nH]c(=O)c(C#N)cc1-c1ccncc1 [Milrinone, 1,6-dihydro-2-methyl-6-oxo-(3,4′-bipyridine)-5-carbonitrile] | – | – | ++ (the symbol ++ indicates an increase greater than 40% in the A+B sperm type count) | ++ | – | – | – | – | – | – | – | – | –
